We go through 19 molecules from US8198273B2, “Compounds and methods for kinase modulation, and indications therefor” (Plexxikon Inc., priority 2009, dated 2012).

Each structure is given as a SMILES string. A value given as a limit tells only on which side of the number the result lay.

Series [1] relates to SKMEL2 melanoma cells (Ras mutation). The series is described as follows: SKMEL2 cell growth inhibition (ATPlite). Format: cell-based. The conditions noted are these: Homo sapiens, SK-MEL-2, 72 h; SKMEL2, 3 days incubation. The method, boiled down:
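SKMEL2 cells seeded at 2,000 per well overnight, then exposed to an 8-point 1:3 compound titration (top 10 μM final) for 3 days at 37 °C. ATPlite luminescence used as a measure of cell number to derive IC50.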
On the technique in general: Cellular ATP, detected with luciferase, serves as a proxy for viable cell number.

The target in a further series is CYP3A4(BQ) (Homo sapiens, UniProt P08684). Briefly: CYP3A4(BQ) inhibition (fluorescent substrate). Format: in vitro ADME. The following applies: read-out: Cyp IC50 3A4(BQ). The gist of the method: (§1)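 Inhibition was followed as loss of fluorescent metabolite from a known substrate, with compound in co-factor mix as a 10-point 1:1 serial dilution (100 mM DMSO stock).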

For a further series, the target named is CYP3A4(BFC) (Homo sapiens, UniProt P08684). Briefly: CYP3A4(BFC) inhibition (fluorescent substrate). The format is in vitro ADME. The conditions noted are these: read-out: Cyp IC50 3A4(BFC). The method, boiled down: as §1
In series [2] the test system is A375 melanoma cells (B-Raf V600E). Briefly: A375 cell growth inhibition (ATPlite). Format: cell-based. The conditions noted are these: Homo sapiens, A-375, 72 h; A375, 3 days incubation. The gist of the method:
(§2)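 Cells plated overnight, then exposed 3 days at 37° C to 8-point 1:3 compound dilutions topping at 10 μM final. Viability read as ATPlite luminescence, proportional to cell number; IC50 from luminescence versus concentration.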

Series [3] deals with SW620 colon adenocarcinoma cells (wild-type B-RAF). The series is described as follows: SW620 cell growth inhibition (ATPlite). Format: cell-based. The following applies: Homo sapiens, SW-620, 72 h; SW620, 3 days incubation. The method, boiled down: as §2

Chain of CYP3A4(BFC) (P08684 whole entry): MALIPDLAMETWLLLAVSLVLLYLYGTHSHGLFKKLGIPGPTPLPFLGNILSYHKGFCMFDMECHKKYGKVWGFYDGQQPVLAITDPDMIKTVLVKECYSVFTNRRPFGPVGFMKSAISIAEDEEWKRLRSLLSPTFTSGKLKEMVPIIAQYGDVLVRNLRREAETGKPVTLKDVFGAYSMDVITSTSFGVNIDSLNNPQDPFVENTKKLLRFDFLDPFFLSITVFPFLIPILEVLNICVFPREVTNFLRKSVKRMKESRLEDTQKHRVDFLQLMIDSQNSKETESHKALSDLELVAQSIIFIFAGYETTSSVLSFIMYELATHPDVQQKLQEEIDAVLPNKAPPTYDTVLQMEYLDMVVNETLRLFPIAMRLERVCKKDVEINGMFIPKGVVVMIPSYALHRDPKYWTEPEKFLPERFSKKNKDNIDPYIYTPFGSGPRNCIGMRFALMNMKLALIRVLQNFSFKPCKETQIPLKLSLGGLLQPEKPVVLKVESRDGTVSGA
Chain of CYP3A4(BQ) (P08684 whole entry): as above

As a reminder, the IC50 is the point on the concentration scale where inhibition reaches its midpoint. Consider `CCCS(=O)(=O)Nc1ccc(F)c(C(=O)c2c[nH]c3ncc(-c4ccc(F)nc4)cc23)c1F` [P-2155, Propane-1-sulfonic acid {2,4-difluoro-3-[5-(6-fluoro-pyridin-3-yl)-1H-pyrrolo[2,3-b]pyridine-3-carbonyl]-phenyl}-amide], for which the IC50 in series [1] is under 20 µM; on CYP3A4(BQ) it was over 10 µM; at CYP3A4(BFC), over 10 µM; in series [2], under 1 µM; in series [3], over 10 µM.
In the case of `CCCS(=O)(=O)Nc1ccc(F)c(C(=O)c2c[nH]c3ncc(-c4cncnc4)cc23)c1F` [P-2162, Propane-1-sulfonic acid [2,4-difluoro-3-(5-pyrimidin-5-yl-1H-pyrrolo[2,3-b]pyridine-3-carbonyl)-phenyl]-amide], the concentration for half-maximal inhibition (IC50) was under 10 µM in series [1]; under 5 µM on CYP3A4(BQ); 5 to 10 µM on CYP3A4(BFC); under 1 µM in series [2]; over 10 µM in series [3].
`CCCS(=O)(=O)Nc1ccc(F)c(C(=O)c2c[nH]c3ncc(-c4ccc(NS(C)(=O)=O)cc4)cc23)c1F` [P-2165, Propane-1-sulfonic acid {2,4-difluoro-3-[5-(4-methanesulfonylamino-phenyl)-1H-pyrrolo[2,3-b]pyridine-3-carbonyl]-phenyl}-amide]: the IC50 in series [1] was under 10 µM; at CYP3A4(BQ) it was over 10 µM; at CYP3A4(BFC) it was over 10 µM; in series [2] it was under 1 µM; in series [3], under 10 µM.
On to `CCCS(=O)(=O)Nc1ccc(F)c(C(=O)c2c[nH]c3ncc(-c4ccc(S(=O)(=O)N5CCOCC5)cc4)cc23)c1F` [P-2166, Propane-1-sulfonic acid (2,4-difluoro-3-{5-[4-(morpholine-4-sulfonyl)-phenyl]-1H-pyrrolo[2,3-b]pyridine-3-carbonyl}-phenyl)-amide], for which the half-inhibitory concentration (IC50) in series [1] is under 5 µM; on CYP3A4(BQ), over 10 µM; on CYP3A4(BFC) it was over 10 µM; in series [2], under 1 µM; in series [3], under 10 µM.
As for `CCCS(=O)(=O)Nc1ccc(F)c(C(=O)c2c[nH]c3ncc(-c4ccc(S(=O)(=O)NC)cc4)cc23)c1F` [P-2167, 4-{3-[2,6-Difluoro-3-(propane-1-sulfonylamino)-benzoyl]-1H-pyrrolo[2,3-b]pyridin-5-yl}-N-methyl-benzenesulfonamide], the IC50 in series [1] was under 5 µM; at CYP3A4(BQ), 5 to 10 µM; on CYP3A4(BFC) it was over 10 µM; in series [2], under 1 µM; in series [3] it was under 10 µM.
For `CCCS(=O)(=O)Nc1ccc(F)c(C(=O)c2c[nH]c3ncc(-c4cn[nH]c4)cc23)c1F` [P-2174, Propane-1-sulfonic acid {2,4-difluoro-3-[5-(1H-pyrazol-4-yl)-1H-pyrrolo[2,3-b]pyridine-3-carbonyl]-phenyl}-amide], the concentration for half-maximal inhibition (IC50) in series [1] was under 10 µM; at CYP3A4(BQ) it was under 5 µM; on CYP3A4(BFC), over 10 µM; in series [2], under 1 µM; in series [3], over 10 µM.
For the molecule `CCCS(=O)(=O)Nc1ccc(F)c(C(=O)c2c[nH]c3ncc(-c4cnn(CCN5CCOCC5)c4)cc23)c1F` [P-2177, Propane-1-sulfonic acid (2,4-difluoro-3-{5-[1-(2-morpholin-4-yl-ethyl)-1H-pyrazol-4-yl]-1H-pyrrolo[2,3-b]pyridine-3-carbonyl}-phenyl)-amide], the IC50 in series [1] is under 10 µM; at CYP3A4(BQ) it was over 10 µM; at CYP3A4(BFC), under 5 µM; in series [2], under 1 µM; in series [3], under 20 µM.
`CCCS(=O)(=O)Nc1ccc(F)c(C(=O)c2c[nH]c3ncc(-c4ccc(OCCCN(C)C)nc4)cc23)c1F` [P-2178, Propane-1-sulfonic acid (3-{5-[6-(3-dimethylamino-propoxy)-pyridin-3-yl]-1H-pyrrolo[2,3-b]pyridine-3-carbonyl}-2,4-difluoro-phenyl)-amide]: the IC50 in series [1] is under 5 µM; on CYP3A4(BQ), under 5 µM; on CYP3A4(BFC), over 10 µM; in series [2], under 0.1 µM; in series [3], over 10 µM.
As to `CCCS(=O)(=O)Nc1ccc(F)c(C(=O)c2c[nH]c3ncc(-c4ccc(S(C)(=O)=O)cc4)cc23)c1F` [P-2183, Propane-1-sulfonic acid {2,4-difluoro-3-[5-(4-methanesulfonyl-phenyl)-1H-pyrrolo[2,3-b]pyridine-3-carbonyl]-phenyl}-amide], the IC50 in series [1] is over 10 µM; on CYP3A4(BQ) it was over 10 µM; on CYP3A4(BFC), over 10 µM; in series [2], under 0.1 µM; in series [3] it was under 20 µM.
As for `CCCS(=O)(=O)Nc1ccc(F)c(C(=O)c2c[nH]c3ncc(-c4ccc(S(=O)(=O)N(C)C)cc4)cc23)c1F` [P-2185, 4-{3-[2,6-Difluoro-3-(propane-1-sulfonylamino)-benzoyl]-1H-pyrrolo[2,3-b]pyridin-5-yl}-N,N-dimethyl-benzenesulfonamide], the IC50 in series [1] was over 10 µM; at CYP3A4(BQ), over 10 µM; at CYP3A4(BFC), over 10 µM; in series [2], under 0.1 µM; in series [3] it was over 10 µM.
Regarding `CCCS(=O)(=O)Nc1ccc(F)c(C(=O)c2c[nH]c3ncc(-c4cnc(SC)nc4)cc23)c1F` [P-2189, Propane-1-sulfonic acid {2,4-difluoro-3-[5-(2-methylsulfanyl-pyrimidin-5-yl)-1H-pyrrolo[2,3-b]pyridine-3-carbonyl]-phenyl}-amide], the IC50 in series [1] is under 10 µM; on CYP3A4(BQ) it was under 5 µM; at CYP3A4(BFC), over 10 µM; in series [2] it was under 1 µM; in series [3] it was over 10 µM.
Turning to `CCCS(=O)(=O)Nc1ccc(F)c(C(=O)c2c[nH]c3ncc(-c4ccc(NC(C)=O)nc4)cc23)c1F` [P-2193, N-(5-{3-[2,6-Difluoro-3-(propane-1-sulfonylamino)-benzoyl]-1H-pyrrolo[2,3-b]pyridin-5-yl}-pyridin-2-yl)-acetamide], the IC50 is over 10 µM in series [1]; over 10 µM at CYP3A4(BQ); 5 to 10 µM on CYP3A4(BFC); under 1 µM in series [2]; over 10 µM in series [3].
As for `CCCS(=O)(=O)Nc1ccc(F)c(C(=O)c2c[nH]c3ncc(-c4cnc(N(C)C)nc4)cc23)c1F` [P-2196, Propane-1-sulfonic acid {3-[5-(2-dimethylamino-pyrimidin-5-yl)-1H-pyrrolo[2,3-b]pyridine-3-carbonyl]-2,4-difluoro-phenyl}-amide], the half-inhibitory concentration (IC50) in series [1] was over 10 µM; on CYP3A4(BQ), over 10 µM; on CYP3A4(BFC) it was under 5 µM; in series [2], under 1 µM; in series [3], over 10 µM.
Consider `CCCS(=O)(=O)Nc1ccc(F)c(C(=O)c2c[nH]c3ncc(-c4cnc(C)nc4)cc23)c1F` [P-2211, Propane-1-sulfonic acid {2,4-difluoro-3-[5-(2-methyl-pyrimidin-5-yl)-1H-pyrrolo[2,3-b]pyridine-3-carbonyl]-phenyl}-amide], for which the half-maximal inhibitory concentration (IC50) in series [1] was over 10 µM; on CYP3A4(BQ), over 10 µM; on CYP3A4(BFC), over 10 µM; in series [2] it was under 1 µM; in series [3], over 10 µM.
Turning to `CCCS(=O)(=O)Nc1ccc(F)c(C(=O)c2c[nH]c3ncc(-c4ccc(C)nc4)cc23)c1F` [P-2213, Propane-1-sulfonic acid {2,4-difluoro-3-[5-(6-methyl-pyridin-3-yl)-1H-pyrrolo[2,3-b]pyridine-3-carbonyl]-phenyl}-amide], the IC50 in series [1] is over 10 µM; on CYP3A4(BQ), over 10 µM; at CYP3A4(BFC) it was over 10 µM; in series [2] it was under 1 µM; in series [3] it was under 20 µM.
In the case of `CCCS(=O)(=O)Nc1ccc(F)c(C(=O)c2c[nH]c3ncc(-c4ccc(N)nc4)cc23)c1F` [P-2214, Propane-1-sulfonic acid {3-[5-(6-amino-pyridin-3-yl)-1H-pyrrolo[2,3-b]pyridine-3-carbonyl]-2,4-difluoro-phenyl}-amide], the IC50 in series [1] was over 10 µM; on CYP3A4(BQ) it was over 10 µM; on CYP3A4(BFC) it was over 10 µM; in series [2], under 1 µM; in series [3], under 20 µM.
On to `CCCS(=O)(=O)Nc1ccc(F)c(C(=O)c2c[nH]c3ncc(-c4ccc(S(=O)(=O)CC)cc4)cc23)c1F` [P-2218, Propane-1-sulfonic acid {3-[5-(4-ethanesulfonyl-phenyl)-1H-pyrrolo[2,3-b]pyridine-3-carbonyl]-2,4-difluoro-phenyl}-amide], for which the half-inhibitory concentration (IC50) in series [1] is over 10 µM; at CYP3A4(BQ), over 10 µM; at CYP3A4(BFC) it was over 10 µM; in series [2] it was under 0.1 µM; in series [3] it was under 20 µM.
Consider `CCCS(=O)(=O)Nc1ccc(F)c(C(=O)c2c[nH]c3ncc(C#CCOC)cc23)c1F` [P-2239, Propane-1-sulfonic acid {2,4-difluoro-3-[5-(3-methoxy-prop-1-ynyl)-1H-pyrrolo[2,3-b]pyridine-3-carbonyl]-phenyl}-amide], for which the 50% inhibitory concentration (IC50) in series [1] is under 20 µM; on CYP3A4(BQ) it was 5 to 10 µM; at CYP3A4(BFC), 5 to 10 µM; in series [2] it was under 1 µM; in series [3], over 10 µM.
Take `CCCS(=O)(=O)Nc1cccc(C(=O)c2c[nH]c3ncc(-c4cnc(OC)nc4)cc23)c1F` [P-2407, Propane-1-sulfonic acid {2-fluoro-3-[5-(2-methoxy-pyrimidin-5-yl)-1H-pyrrolo[2,3-b]pyridine-3-carbonyl]-phenyl}-amide]: the IC50 in series [1] is under 20 µM; at CYP3A4(BQ) it was over 10 µM; at CYP3A4(BFC), over 10 µM; in series [2], under 1 µM; in series [3], over 10 µM.
